Experimental data: ChEMBL document CHEMBL2429811, “Novel selective and potent inhibitors of malaria parasite dihydroorotate dehydrogenase: discovery and optimization of dihydrothiophenone derivatives” (J Med Chem, 2013)

What was measured:
[1] = target: Dihydroorotate dehydrogenase (quinone), mitochondrial (Homo sapiens, UniProt Q02127); test: Inhibition of N-terminal His10-tagged human DHODH (Met30 to Arg396) expressed in Escherichia coli BL21 (DE3) using dihydroorotate as substrate measured every 30 secs for 6 mins by DCIP dye-based assay
Chain of Dihydroorotate dehydrogenase (quinone), mitochondrial (Q02127 whole entry): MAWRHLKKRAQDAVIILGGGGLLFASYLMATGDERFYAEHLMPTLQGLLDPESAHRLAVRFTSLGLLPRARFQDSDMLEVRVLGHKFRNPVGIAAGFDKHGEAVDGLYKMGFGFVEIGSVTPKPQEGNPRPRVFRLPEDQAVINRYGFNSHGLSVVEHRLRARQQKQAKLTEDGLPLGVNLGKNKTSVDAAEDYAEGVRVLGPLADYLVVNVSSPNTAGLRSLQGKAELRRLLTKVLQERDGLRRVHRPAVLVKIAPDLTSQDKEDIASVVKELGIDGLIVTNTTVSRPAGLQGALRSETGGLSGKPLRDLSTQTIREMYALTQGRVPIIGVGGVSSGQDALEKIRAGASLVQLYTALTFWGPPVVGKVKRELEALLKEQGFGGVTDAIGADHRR

[2] = target: T1, Dihydroorotate dehydrogenase (Plasmodium falciparum, UniProt Q54A96); test: Inhibition of Plasmodium falciparum DHODH (Phe158 to Ser569) expressed in Escherichia coli BL21 using dihydroorotate as substrate measured every 30 secs for 6 mins by DCIP dye-based assay
T1 sequence (Q54A96 whole entry): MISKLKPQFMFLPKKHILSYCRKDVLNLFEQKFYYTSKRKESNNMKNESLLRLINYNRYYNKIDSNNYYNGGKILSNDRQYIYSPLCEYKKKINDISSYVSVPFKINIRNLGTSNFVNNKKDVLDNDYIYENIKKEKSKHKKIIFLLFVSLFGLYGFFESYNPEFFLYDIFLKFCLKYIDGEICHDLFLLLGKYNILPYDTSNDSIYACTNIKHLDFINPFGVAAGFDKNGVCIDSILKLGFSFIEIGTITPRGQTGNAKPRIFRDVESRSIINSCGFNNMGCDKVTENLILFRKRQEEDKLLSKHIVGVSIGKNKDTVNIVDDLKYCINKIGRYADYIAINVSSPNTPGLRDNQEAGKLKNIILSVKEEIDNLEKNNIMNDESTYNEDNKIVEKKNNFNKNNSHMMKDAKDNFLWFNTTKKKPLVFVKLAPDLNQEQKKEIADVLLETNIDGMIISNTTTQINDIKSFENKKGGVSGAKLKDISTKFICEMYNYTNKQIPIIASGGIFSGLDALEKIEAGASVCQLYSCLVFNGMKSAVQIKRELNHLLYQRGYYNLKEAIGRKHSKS

Plasmodium falciparum [3] = test: microbe, parasite or virus in culture; conditions: Dd2, 72 h
Description: Antiplasmodial activity against chloroquine-resistant Plasmodium falciparum Dd2 infected in erythrocytes assessed as parasite growth inhibition after 72 hrs by SYBR green 1 dye-based fluorometric analysis

Plasmodium falciparum [4] = test: microbe, parasite or virus in culture; conditions: 3D7, 72 h
Description: Antiplasmodial activity against chloroquine-sensitive Plasmodium falciparum 3D7 infected in erythrocytes assessed as parasite growth inhibition after 72 hrs by SYBR green 1 dye-based fluorometric analysis

[5] = Oral bioavailability in Sprague-Dawley rat at 10 mg/kg; format: ADME, organism-based; conditions: in vivo
[6] = Tmax in Sprague-Dawley rat at 10 mg/kg, po; format: ADME, organism-based; parameters: dose 10 mg/kg, route oral; conditions: in vivo
[7] = Cmax in Sprague-Dawley rat at 10 mg/kg, po; format: ADME, organism-based; parameters: dose 10 mg/kg, route oral; conditions: in vivo
[8] = AUC (0 to last) in Sprague-Dawley rat at 10 mg/kg, po; format: ADME, organism-based; parameters: time 0 - last, dose 10 mg/kg, route oral; conditions: plasma
[9] = Half life in Sprague-Dawley rat at 10 mg/kg, po; format: ADME, organism-based; parameters: dose 10 mg/kg, route oral; conditions: in vivo
[10] = Volume of distribution in Sprague-Dawley rat at 1 mg/kg, iv; format: ADME, organism-based; parameters: dose 1 mg/kg, route intravenous; conditions: in vivo
[11] = Half life in Sprague-Dawley rat at 1 mg/kg, iv; format: ADME, organism-based; parameters: dose 1 mg/kg, route intravenous; conditions: in vivo
[12] = Clearance in Sprague-Dawley rat at 1 mg/kg, iv; format: ADME, organism-based; parameters: dose 1 mg/kg, route intravenous; conditions: in vivo

| SMILES | IC50 [1] [nM] | IC50 [2] [nM] | IC50 (Plasmodium falciparum [3]) [nM] | IC50 (Plasmodium falciparum [4]) [nM] | bioavailability [5] [%] | Tmax [6] [min] | Cmax [7] [ng/mL] | AUC(0-t) [8] [ng·h/mL] | half-life [9] [min] | Vd [10] [L/kg] | half-life [11] [min] | clearance [12] [mL/min/kg] |
| --- | --- | --- | --- | --- | --- | --- | --- | --- | --- | --- | --- | --- |
| CCOC(=O)C1=C(Nc2ccccc2)SCC1=O | > 50000 | > 50000 | 6560 | 5900 |  |  |  |  |  |  |  |  |
| CCOC(=O)C1=C(Nc2ccc(Cl)cc2)SCC1=O | > 50000 | 1110 | > 20000 | > 20000 |  |  |  |  |  |  |  |  |
| CCCCOC(=O)C1=C(Nc2ccc(C)c(C)c2)SCC1=O | > 50000 | 2350 | 889 | 745 |  |  |  |  |  |  |  |  |
| Cc1ccc(NC2=C(C(=O)OCC3CC3)C(=O)CS2)cc1C | > 50000 | 4160 | 2630 | 3530 |  |  |  |  |  |  |  |  |
| Cc1ccc(NC2=C(C(N)=O)C(=O)CS2)cc1C | > 50000 | > 50000 | > 20000 | > 20000 |  |  |  |  |  |  |  |  |
| CCNC(=O)C1=C(Nc2ccc(C)c(C)c2)SCC1=O | > 50000 | 39500 | 6260 | 8470 |  |  |  |  |  |  |  |  |
| CCCNC(=O)C1=C(Nc2ccc(C)c(C)c2)SCC1=O | 6300 | 4630 | 3930 | 3170 |  |  |  |  |  |  |  |  |
| CCCCNC(=O)C1=C(Nc2ccc(C)c(C)c2)SCC1=O | 4420 | 5730 | 2780 | 2700 |  |  |  |  |  |  |  |  |
| Cc1ccc(NC2=C(C(=O)NC3CC3)C(=O)CS2)cc1C | 4110 | 19100 | 5530 | 6620 |  |  |  |  |  |  |  |  |
| Cc1ccc(NC2=C(C(=O)NCC3CC3)C(=O)CS2)cc1C | 1840 | 3660 | 3500 | 3340 |  |  |  |  |  |  |  |  |
| COC(=O)C1=C(Nc2ccc3ccccc3c2)SCC1=O | > 50000 | 33 | 400 | 245 |  |  |  |  |  |  |  |  |
| CCCOC(=O)C1=C(Nc2ccc3ccccc3c2)SCC1=O | > 50000 | 951 | 1660 | 890 |  |  |  |  |  |  |  |  |
| CCCCOC(=O)C1=C(Nc2ccc3ccccc3c2)SCC1=O | > 50000 | 35600 | 5230 | 8380 |  |  |  |  |  |  |  |  |
| CCNC(=O)C1=C(Nc2ccc3ccccc3c2)SCC1=O | > 50000 | 12100 | 8490 | 11100 |  |  |  |  |  |  |  |  |
| CCCNC(=O)C1=C(Nc2ccc3ccccc3c2)SCC1=O | > 50000 | > 50000 | 3550 | 3480 |  |  |  |  |  |  |  |  |
| CCCCNC(=O)C1=C(Nc2ccc3ccccc3c2)SCC1=O | > 50000 | > 50000 | 4030 | 5830 |  |  |  |  |  |  |  |  |
| O=C1CSC(Nc2ccc3ccccc3c2)=C1C(=O)NC1CC1 | > 50000 | 13200 | 7940 | 10200 |  |  |  |  |  |  |  |  |
| O=C1CSC(Nc2ccc3ccccc3c2)=C1C(=O)NCC1CC1 | > 50000 | > 50000 | > 20000 | 12400 |  |  |  |  |  |  |  |  |
| CCOC(=O)C1=C(Nc2ccc3ccccc3c2)OCC1=O | > 50000 | 6 | 18 | 15 | 40 | 17.4 | 609 | 791 | 45 | 1.91 | 15.6 | 84.7 |
| CCOC(=O)C1=C(Nc2ccc(C)c(C)c2)OCC1=O | > 50000 | 698 | 486 | 372 |  |  |  |  |  |  |  |  |
| CCOC(=O)C1=C(Nc2cnc3ccccc3c2)OCC1=O | > 50000 | 79 | 517 | 492 |  |  |  |  |  |  |  |  |
| CCOC(=O)C1=C(Nc2ccc3c(c2)CCCC3)OCC1=O | > 50000 | 18 | 76 | 57 |  |  |  |  |  |  |  |  |
| CCOC(=O)C1=C(Nc2ccc3c(c2)CCC3)OCC1=O | > 50000 | 65 | 373 | 495 |  |  |  |  |  |  |  |  |

| SMILES | IC50 [1] [nM] | IC50 [2] [nM] | IC50 (Plasmodium falciparum [3]) [nM] | IC50 (Plasmodium falciparum [4]) [nM] | bioavailability [5] [%] | Tmax [6] [min] | Cmax [7] [ng/mL] | AUC(0-t) [8] [ng·h/mL] | half-life [9] [min] | Vd [10] [L/kg] | half-life [11] [min] | clearance [12] [mL/min/kg] |
| --- | --- | --- | --- | --- | --- | --- | --- | --- | --- | --- | --- | --- |
| CCOC(=O)C1=C(Nc2ccc(S(F)(F)(F)(F)F)cc2)OCC1=O | > 50000 | 168 | 1060 | 680 |  |  |  |  |  |  |  |  |
| CCOC(=O)C1=C(Nc2ccc(C(F)(F)F)cc2)OCC1=O | > 50000 | 142 | 867 | 607 |  |  |  |  |  |  |  |  |
| CCOC(=O)C1=C(Nc2ccc(C(F)(F)F)cc2)SCC1=O | > 50000 | 367 | 1040 | 946 |  |  |  |  |  |  |  |  |
| CCOC(=O)C1=C(Nc2ccc(S(F)(F)(F)(F)F)cc2)SCC1=O | > 50000 | 559 | 697 | 307 |  |  |  |  |  |  |  |  |
| CCOC(=O)C1=C(Nc2ccc(C(C)(C)C)cc2)SCC1=O | > 50000 | 227 | 767 | 1520 |  |  |  |  |  |  |  |  |
| CCOC(=O)C1=C(Nc2ccc(Cl)c(C(F)(F)F)c2)SCC1=O | > 50000 | 751 | 3150 | 2190 |  |  |  |  |  |  |  |  |
| CCOC(=O)C1=C(Nc2ccc(Br)c(C(F)(F)F)c2)SCC1=O | > 50000 | 1620 | 5540 | 5610 |  |  |  |  |  |  |  |  |
| CCOC(=O)C1=C(Nc2cccc(C(F)(F)F)c2)SCC1=O | > 50000 | > 50000 | 13600 | 14400 |  |  |  |  |  |  |  |  |
| CCOC(=O)C1=C(Nc2cc(Cl)cc(Cl)c2)SCC1=O | > 50000 | 1190 | 6000 | 4030 |  |  |  |  |  |  |  |  |
| CCOC(=O)C1=C(Nc2ccc(C)c(C)c2)SCC1=O | > 50000 | 256 | 1320 | 1990 |  |  |  |  |  |  |  |  |
| CCOC(=O)C1=C(Nc2ccc(C)c(F)c2)SCC1=O | > 50000 | 536 | 3730 | 5050 |  |  |  |  |  |  |  |  |
| CCOC(=O)C1=C(Nc2ccc(Br)cc2C)SCC1=O | > 50000 | > 50000 | > 20000 | > 20000 |  |  |  |  |  |  |  |  |
| CCOC(=O)C1=C(Nc2ccc3c(c2)CCCC3)SCC1=O | 12000 | 92 | 315 | 169 |  |  |  |  |  |  |  |  |
| CCOC(=O)C1=C(Nc2cnc3ccccc3c2)SCC1=O | > 50000 | 351 | 290 | 253 |  |  |  |  |  |  |  |  |
| CCOC(=O)C1=C(Nc2ccc3ccccc3c2)SCC1=O | > 50000 | 20 | 57 | 77 | 3.02 | 15 | 25.5 | 39.3 | 154 | 3.35 | 18 | 129 |
| CCOC(=O)C1=C(Nc2ccc3c(c2)CCC3)SCC1=O | > 50000 | 851 | 1570 | 1400 |  |  |  |  |  |  |  |  |
| CCOC(=O)C1=C(Nc2ccc3cc4ccccc4cc3c2)SCC1=O | > 50000 | 197 | 1130 | 688 |  |  |  |  |  |  |  |  |
| CCOC(=O)C1=C(Nc2ccc3c(c2)c2ccccc2n3CC)SCC1=O | > 50000 | 392 | 1510 | 1230 |  |  |  |  |  |  |  |  |
| Cc1ccc(NC2=CC(=O)CS2)cc1C | > 50000 | 11400 | 2500 | 1910 |  |  |  |  |  |  |  |  |
| Cc1ccc(NC2=C(C(=O)O)C(=O)CS2)cc1C | > 50000 | > 50000 | > 20000 | > 20000 |  |  |  |  |  |  |  |  |
| O=C(O)C1=C(Nc2ccc3ccccc3c2)SCC1=O | > 50000 | 1240 | 1050 | 1860 |  |  |  |  |  |  |  |  |
| COC(=O)C1=C(Nc2ccc(C)c(C)c2)SCC1=O | > 50000 | 1490 | 1270 | 1020 |  |  |  |  |  |  |  |  |
| CCCOC(=O)C1=C(Nc2ccc(C)c(C)c2)SCC1=O | 11600 | 4030 | 1690 | 2110 |  |  |  |  |  |  |  |  |
